Measured values taken from patent publication US9266869B2, “Substituted dialkyl(oxido)-lambda4-sulfanylidene nicotinamide derivatives as kinase inhibitors” (Allergan, Inc., priority 2013, dated 2016).

What was measured:
[1] = biological target: T1, PDGFRβ (Homo sapiens (Human), UniProt P09619); assay: PDGFRβ Kinase Assay; type: biochemical; conditions: purified cytoplasmic domain PDGFR-b protein, 36 μM ATP; read-out: PDGFRβ Enzyme Assay (IC50 nM)
Procedure: Biochemical PDGFRβ kinase assays were performed in 96 well microtiter plates that were coated overnight with 75 μg of poly-Glu-Tyr (4:1) in 10 mM Phosphate Buffered Saline (PBS), pH 7.4.
(§1) PBS-T prior to starting the reaction. Reactions were carried out in 100 μL reaction volumes containing 36 μM ATP in kinase buffer (50 mM Hepes buffer pH 7.4, 20 mM MgCl2, 0.1 mM MnCl2 and 0.2 mM Na3VO4). […] Reactions were initiated by the addition 20 ul per well of kinase buffer containing 200-300 ng purified cytoplasmic domain PDGFR-b protein (Millipore). Following a 60 minute incubation at 30° C., the reactions were washed 2 mls per well PBS-T. 100 μl of a monoclonal anti-phosphotyrosine antibody-peroxidase conjugate diluted 1:10,000 in PBS-T was added to the wells for 30 minutes. Following a 2 mls per well wash with PBS-Tween-20, 100 μl of O-Phenylenediamine Dihydrochloride in phosphate-citrate buffer, containing urea hydrogen peroxide, was added to the wells for 7-10 minutes as a colorimetric substrate for the peroxidase. […] IC50 values for compound inhibition were calculated directly from graphs of optical density (arbitrary units) versus compound concentration following subtraction of blank values.
Target sequence in this assay (P09619 554-1106): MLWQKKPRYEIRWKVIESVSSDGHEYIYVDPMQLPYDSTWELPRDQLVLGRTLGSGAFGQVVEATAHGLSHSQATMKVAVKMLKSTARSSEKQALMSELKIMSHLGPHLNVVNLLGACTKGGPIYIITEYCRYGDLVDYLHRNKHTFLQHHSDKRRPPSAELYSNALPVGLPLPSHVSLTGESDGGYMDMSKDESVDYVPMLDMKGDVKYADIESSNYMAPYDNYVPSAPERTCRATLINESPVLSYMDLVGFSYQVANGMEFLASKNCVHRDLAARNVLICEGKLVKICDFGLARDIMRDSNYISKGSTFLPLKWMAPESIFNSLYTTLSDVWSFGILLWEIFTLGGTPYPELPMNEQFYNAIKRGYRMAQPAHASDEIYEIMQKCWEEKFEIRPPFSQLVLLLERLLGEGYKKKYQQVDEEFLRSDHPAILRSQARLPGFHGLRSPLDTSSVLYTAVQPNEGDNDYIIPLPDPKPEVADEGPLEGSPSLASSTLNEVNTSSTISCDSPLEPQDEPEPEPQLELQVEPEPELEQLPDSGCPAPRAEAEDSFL

[2] = biological target: VEGFR2 (KDR) (Homo sapiens (Human), UniProt P35968); assay: VEGFR2 Kinase Assay; type: biochemical; conditions: purified cytoplasmic domain KDR protein, 2.7 μM ATP; read-out: VEGFR2 Enzyme Assay (IC50 nM)
Procedure: as §1, with “VEGFR2 Kinase Assay Biochemical KDR kinase assays were performed in 96 well microtiter plates that were coated overnight with 75 μg/well of poly-Glu-[…]:1) in 10 mM Phosphate Buffered Saline (PBS), pH 7.4. […]” for “PBS-T prior to starting the reaction.”, “2.7” for “36”, “KDR” for “PDGFR-b”, “(BPS Bioscience, San Diego, Calif.).” for “(Millipore).”, “15” for “60”, “0-Phenylenediamine” for “O-Phenylenediamine”

[3] = biological target: VEGFR2 (Homo sapiens (Human), UniProt P35968); assay: VEGFR2 Cellular Assay (VEGF induced intracellular calcium, FLIPR, HUVEC); type: cell-based; conditions: VEGF165 stimulation (10 ng/mL)
Procedure: (§2) VEGFR2 Cellular Assay Automated FLIPR (Fluorometric Imaging Plate Reader) technology was used to screen for inhibitors of VEGF induced increases in intracellular calcium levels in fluorescent dye loaded endothelial cells. HUVEC (human umbilical vein endothelial cells) (Clonetics) were seeded in 384-well fibronectin coated black-walled plates overnight @ 37° C./5% CO2. Cells were loaded with calcium indicator Fluo-4 for 45 minutes at 37° C. Cells were washed 2 times (Elx405, Biotek Instruments) to remove extracellular dye. For screening, cells were pre-incubated with test agents for 30 minutes, at a single concentration (10 uM) or at concentrations ranging from 0.0001 to 10.0 uM followed by VEGF165 stimulation (10 ng/mL). Changes in fluorescence at 516 nm were measured simultaneously in all 384 wells using a cooled CCD camera. Data were generated by determining max-min fluorescence levels for unstimulated, stimulated, and drug treated samples. IC50 values for test compounds were calculated from % inhibition of VEGF stimulated responses in the absence of inhibitor.

[4] = biological target: T1, PDGFRβ; assay: PDGFRβ Cellular Assay (PDGF-induced intracellular calcium, FLIPR, NHDF-Ad); type: cell-based; conditions: PDGF-BB stimulation (30 ng/mL)
Procedure: as §2, with “Automated” for “VEGFR2 Cellular Assay Automated”, “of PDGF-induced” for “of VEGF induced”, “[…]. NHDF-Ad (Normal Human Dermal Fibroblasts, Adult; Lonza)” for “cells. HUVEC (human umbilical vein endothelial cells) (Clonetics)”, “by PDGF-BB” for “by VEGF165”, “stimulation (30” for “stimulation (10”, “of PDGF-BB” for “of VEGF”
Target sequence in this assay (P09619 33-1106): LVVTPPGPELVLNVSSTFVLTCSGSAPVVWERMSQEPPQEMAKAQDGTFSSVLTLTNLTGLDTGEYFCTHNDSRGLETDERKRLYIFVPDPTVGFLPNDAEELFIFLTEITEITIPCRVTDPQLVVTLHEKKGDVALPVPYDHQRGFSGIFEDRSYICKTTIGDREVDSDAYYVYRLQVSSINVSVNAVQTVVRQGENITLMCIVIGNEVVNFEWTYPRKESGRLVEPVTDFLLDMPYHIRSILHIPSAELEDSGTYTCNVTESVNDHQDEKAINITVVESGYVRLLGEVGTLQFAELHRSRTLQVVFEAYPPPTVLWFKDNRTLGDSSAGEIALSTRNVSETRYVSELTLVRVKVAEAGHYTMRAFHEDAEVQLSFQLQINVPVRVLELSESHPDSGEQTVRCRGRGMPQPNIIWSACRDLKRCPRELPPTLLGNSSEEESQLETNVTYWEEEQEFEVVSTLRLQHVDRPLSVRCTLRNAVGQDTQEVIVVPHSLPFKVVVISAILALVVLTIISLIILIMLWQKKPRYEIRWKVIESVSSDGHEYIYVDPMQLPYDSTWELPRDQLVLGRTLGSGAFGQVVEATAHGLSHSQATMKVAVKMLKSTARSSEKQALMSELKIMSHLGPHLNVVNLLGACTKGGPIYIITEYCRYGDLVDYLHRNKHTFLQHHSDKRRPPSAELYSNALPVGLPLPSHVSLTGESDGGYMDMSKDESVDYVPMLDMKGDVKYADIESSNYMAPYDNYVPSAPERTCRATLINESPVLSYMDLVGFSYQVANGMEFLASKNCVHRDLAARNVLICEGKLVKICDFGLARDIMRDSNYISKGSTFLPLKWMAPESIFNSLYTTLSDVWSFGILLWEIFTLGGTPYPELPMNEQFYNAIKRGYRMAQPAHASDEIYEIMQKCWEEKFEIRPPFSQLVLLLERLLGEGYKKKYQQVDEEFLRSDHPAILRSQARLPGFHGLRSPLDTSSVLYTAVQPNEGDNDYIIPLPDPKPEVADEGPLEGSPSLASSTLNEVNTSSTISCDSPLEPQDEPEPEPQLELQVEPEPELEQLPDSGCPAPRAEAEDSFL

Chain of VEGFR2 (KDR) (P35968 786-1356): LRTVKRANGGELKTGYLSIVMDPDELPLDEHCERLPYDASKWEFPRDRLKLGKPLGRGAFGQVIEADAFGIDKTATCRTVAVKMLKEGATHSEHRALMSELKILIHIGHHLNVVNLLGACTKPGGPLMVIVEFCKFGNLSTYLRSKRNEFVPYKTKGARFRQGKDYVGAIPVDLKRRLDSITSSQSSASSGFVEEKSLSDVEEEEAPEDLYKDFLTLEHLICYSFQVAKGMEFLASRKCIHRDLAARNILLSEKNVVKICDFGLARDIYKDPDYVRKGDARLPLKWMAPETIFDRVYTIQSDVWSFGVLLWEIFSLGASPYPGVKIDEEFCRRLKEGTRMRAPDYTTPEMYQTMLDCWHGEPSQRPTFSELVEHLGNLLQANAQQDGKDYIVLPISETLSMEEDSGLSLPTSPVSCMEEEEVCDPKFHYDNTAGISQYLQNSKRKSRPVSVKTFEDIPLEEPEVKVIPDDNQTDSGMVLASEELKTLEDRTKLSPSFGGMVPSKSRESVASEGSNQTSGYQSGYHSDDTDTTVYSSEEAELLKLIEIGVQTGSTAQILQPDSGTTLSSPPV
Chain of VEGFR2 (P35968 20-1356): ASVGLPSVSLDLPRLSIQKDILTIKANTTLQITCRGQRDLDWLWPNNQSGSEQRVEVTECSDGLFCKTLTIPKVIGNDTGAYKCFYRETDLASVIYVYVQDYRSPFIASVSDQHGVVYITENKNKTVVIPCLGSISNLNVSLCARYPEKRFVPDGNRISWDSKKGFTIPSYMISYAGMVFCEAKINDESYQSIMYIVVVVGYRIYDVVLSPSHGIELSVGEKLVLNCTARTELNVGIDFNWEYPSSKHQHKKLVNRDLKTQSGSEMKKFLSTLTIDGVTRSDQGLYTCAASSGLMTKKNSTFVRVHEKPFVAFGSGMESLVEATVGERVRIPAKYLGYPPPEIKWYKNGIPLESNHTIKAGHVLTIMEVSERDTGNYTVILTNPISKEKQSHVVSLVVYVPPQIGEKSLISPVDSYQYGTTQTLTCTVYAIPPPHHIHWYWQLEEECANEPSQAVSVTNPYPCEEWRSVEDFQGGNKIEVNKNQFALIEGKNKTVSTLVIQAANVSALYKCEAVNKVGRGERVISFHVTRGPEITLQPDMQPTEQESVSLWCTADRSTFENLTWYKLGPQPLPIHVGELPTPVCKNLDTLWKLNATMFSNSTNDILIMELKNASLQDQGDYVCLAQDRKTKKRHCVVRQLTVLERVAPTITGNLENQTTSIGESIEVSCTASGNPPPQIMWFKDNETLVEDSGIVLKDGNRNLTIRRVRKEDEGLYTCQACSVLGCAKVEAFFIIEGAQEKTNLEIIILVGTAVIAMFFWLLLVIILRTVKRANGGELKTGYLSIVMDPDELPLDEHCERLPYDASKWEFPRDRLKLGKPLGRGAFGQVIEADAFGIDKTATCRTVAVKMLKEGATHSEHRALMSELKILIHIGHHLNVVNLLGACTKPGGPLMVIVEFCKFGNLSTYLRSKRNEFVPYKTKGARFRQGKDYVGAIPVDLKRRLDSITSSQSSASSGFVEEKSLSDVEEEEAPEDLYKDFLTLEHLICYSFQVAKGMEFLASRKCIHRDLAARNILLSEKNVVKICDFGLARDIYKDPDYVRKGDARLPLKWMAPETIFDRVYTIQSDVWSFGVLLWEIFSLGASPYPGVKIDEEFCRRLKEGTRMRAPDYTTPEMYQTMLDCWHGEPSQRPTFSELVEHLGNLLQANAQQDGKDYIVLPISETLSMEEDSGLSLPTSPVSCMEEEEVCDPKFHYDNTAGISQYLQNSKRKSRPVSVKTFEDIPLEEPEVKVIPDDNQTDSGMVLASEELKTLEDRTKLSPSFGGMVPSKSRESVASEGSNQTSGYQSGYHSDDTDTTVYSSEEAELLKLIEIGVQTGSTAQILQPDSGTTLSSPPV

Molecule | IC50 [1] [nM] | IC50 [2] [nM] | IC50 [3] [nM] | IC50 [4] [nM]
6-Amino-N-[(3-hydroxypropyl)(methyl)oxido-λ^4-sulfanylidene]-5-({3-[(3-methyl-2-furoyl)amino]phenyl}ethynyl)nicotinamide [Example 42] | 13 | 5 |  | 
Cn1ccnc1C(=O)Nc1cccc(C#Cc2cc(C(=O)N=S(C)(C)=O)cnc2N)c1 [Example 7, 6-Amino-N-[dimethyl(oxido)-λ^4-sulfanylidene]-5-[(3-{[(1-methyl-1H-imidazol-2-yl)carbonyl]amino}phenyl)ethynyl]nicotinamide] |  | 6 | 51 | 
CS(C)(=O)=NC(=O)c1cncc(C#Cc2cccc(NC(=O)Nc3ccccc3F)c2)c1 [Example 9, N-[Dimethyl(oxido)-λ^4-sulfanylidene]-5-{[3-({[(2-fluorophenyl)amino]carbonyl}amino)phenyl]ethynyl}nicotinamide] |  | 8 | 48 | 
Cc1cccc(NC(=O)Nc2cccc(C#Cc3cncc(C(=O)N=S(C)(C)=O)c3)c2)c1 [Example 10, N-[Dimethyl(oxido)-λ^4-sulfanylidene]-5-{[3-({[(3-methylphenyl)amino]carbonyl}amino)phenyl]ethynyl}nicotinamide] | 19 | 8 | 11 | 
Cc1ccc(NC(=O)Nc2cccc(C#Cc3cncc(C(=O)N=S(C)(C)=O)c3)c2)cc1 [Example 11, N-[Dimethyl(oxido)-λ^4-sulfanylidene]-5-{[3-({[(4-methylphenyl)amino]carbonyl}amino)phenyl]ethynyl}nicotinamide] | 19 | 6 | 15 | 
Cc1ccc(F)c(C(=O)Nc2cccc(C#Cc3cncc(C(=O)N=S(=O)(CCCO)CCCO)c3)c2)c1 [Example 20, N-[Bis(3-hydroxypropyl)(oxido)-λ^4-sulfanylidene]-5-({3-[(2-fluoro-5-methylbenzoyl)amino]phenyl}ethynyl)nicotinamide] |  | 9 |  | 
Cc1ccoc1C(=O)Nc1cccc(C#Cc2cc(C(=O)N=S(C)(=O)CCCCC(=O)O)cnc2N)c1 (stereo not shown) [Example 24, 5-(N-{[6-amino-5-({3-[(3-methyl-2-furoyl)amino]phenyl}ethynyl)pyridin-3-yl]carbonyl}-S-methylsulfonimidoyl)pentanoic acid] |  | 5 | 46 | 
COC(=O)CCCCS(C)(=O)=NC(=O)c1cnc(N)c(C#Cc2cccc(NC(=O)c3cc(C)ccc3F)c2)c1 (stereo not shown) [Example 25, Methyl 5-(N-{[6-amino-5-({3-[(2-fluoro-5-methylbenzoyl)amino]phenyl}ethynyl)pyridin-3-yl]carbonyl}-S-methylsulfonimidoyl)pentanoate] | 45 | 8 |  | 27
COC(=O)CCCCS(C)(=O)=NC(=O)c1cnc(N)c(C#Cc2cccc(C(=O)Nc3cc(C)ccc3F)c2)c1 (stereo not shown) [Example 35, Methyl 5-[N-({6-amino-5-[(3-{[(2-fluoro-5-methylphenyl)amino]carbonyl}phenyl)ethynyl]pyridin-3-yl}carbonyl)-S-methylsulfonimidoyl]pentanoate] |  | 17 |  | 43
COC(=O)CCCCS(C)(=O)=NC(=O)c1cnc(N)c(C#Cc2cccc(NC(=O)Nc3cc(C)ccc3F)c2)c1 (stereo not shown) [Example 37, Methyl 5-{N-[(6-amino-5-{[3-({[(2-fluoro-5-methylphenyl)amino]carbonyl}amino)phenyl]ethynyl}pyridin-3-yl)carbonyl]-S-methylsulfonimidoyl}pentanoate] | 14 | 5 |  | 44
(R)—N-[(3-Hydroxypropyl)(methyl)oxido-λ^4-sulfanylidene]-5-({3-[(3-methyl-2-furoyl)amino]phenyl}ethynyl)nicotinamide [Example 40] |  | 3 | 2 | 

Other lines, results leading:

IC50 [1] [nM] | IC50 [2] [nM] | IC50 [3] [nM] | IC50 [4] [nM] | Molecule
22 | 2 | 9 |  | CS(C)(=O)=NC(=O)c1cnc(N)c(C#Cc2cccc(NC(=O)c3ccc(Cl)cc3)c2)c1 [Example 5, 6-Amino-5-({3-[(4-chlorobenzoyl)amino]phenyl}ethynyl)-N-[dimethyl(oxido)-λ^4-sulfanylidene]nicotinamide]
26 | 5 |  |  | Cc1ccoc1C(=O)Nc1cccc(C#Cc2cncc(C(=O)N=S(=O)(CCCO)CCCO)c2)c1 [Example 14, N-[Bis(3-hydroxypropyl)(oxido)-λ^4-sulfanylidene]-5-({3-[(3-methyl-2-furoyl)amino]phenyl}ethynyl)nicotinamide]
16 | 3 |  |  | Cc1ccoc1C(=O)Nc1cccc(C#Cc2cc(C(=O)N=S(=O)(CCCO)CCCO)cnc2N)c1 [Example 15, 6-amino-N-[bis(3-hydroxypropyl)(oxido)-λ^4-sulfanylidene]-5-({3-[(3-methyl-2-furoyl)amino]phenyl}ethynyl)nicotinamide]
 | 3 |  |  | O=C(N=S(=O)(CCCO)CCCO)c1cncc(C#Cc2cccc(NC(=O)c3ccc(Cl)c(C(F)(F)F)c3)c2)c1 [Example 16, N-[Bis(3-hydroxypropyl)(oxido)-λ^4-sulfanylidene]-5-[(3-{[4-chloro-3-(trifluoromethyl)benzoyl]amino}phenyl)ethynyl]nicotinamide]
6 | 3 |  |  | Cc1cccc(C(=O)Nc2cccc(C#Cc3cncc(C(=O)N=S(=O)(CCCO)CCCO)c3)c2)c1 [Example 17, N-[Bis(3-hydroxypropyl)(oxido)-λ^4-sulfanylidene]-5-({3-[(3-methylbenzoyl)amino]phenyl}ethynyl)nicotinamide]
 | 4 |  |  | O=C(N=S(=O)(CCCO)CCCO)c1cncc(C#Cc2cccc(NC(=O)c3cccc(C(F)(F)F)c3)c2)c1 [Example 18, N-[Bis(3-hydroxypropyl)(oxido)-λ^4-sulfanylidene]-5-[(3-{[3-(trifluoromethyl)benzoyl]amino}phenyl)ethynyl]nicotinamide]
 | 5 |  |  | O=C(N=S(=O)(CCCO)CCCO)c1cncc(C#Cc2cccc(NC(=O)c3ccc(F)c(Cl)c3)c2)c1 [Example 19, N-[Bis(3-hydroxypropyl)(oxido)-λ^4-sulfanylidene]-5-({3-[(3-chloro-4-fluorobenzoyl)amino]phenyl}ethynyl)nicotinamide]
 | 5 |  |  | COc1cccc(C(=O)Nc2cccc(C#Cc3cc(C(=O)N=S(=O)(CCCO)CCCO)cnc3N)c2)c1 [Example 21, 6-Amino-N-[bis(3-hydroxypropyl)(oxido)-λ^4-sulfanylidene]-5-({3-[(3-methoxybenzoyl)amino]phenyl}ethynyl)nicotinamide]
8 | 3 |  |  | Cc1cccc(NC(=O)c2cccc(C#Cc3cc(C(=O)N=S(=O)(CCCO)CCCO)cnc3N)c2)c1 [Example 22, 6-Amino-N-[bis(3-hydroxypropyl)(oxido)-λ^4-sulfanylidene]-5-[(3-{[(3-methylphenyl)amino]carbonyl}phenyl)ethynyl]nicotinamide]
